# How the values were obtained:
# Assay type in all cases: in vivo
# [1] = tested on: Erysiphe graminis f. sp. tritici; test: Test A: wheat powdery mildew, preventive spray on wheat seedlings, visual disease rating; conditions: for pest or weed control at 200 ppm: Blumeria graminis, 192 h
# Outline: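 Acetone/water (50/50) suspension with 250 ppm surfactant sprayed to run-off on wheat seedlings (200 ppm ≈ 500 g/ha); inoculated next day with E. graminis spore dust. Incubated 8 days at 20° C, then visually rated 0–100% disease control versus untreated controls; tests at 200 ppm or 40 ppm.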
# [2] = tested on: Puccinia recondite f. sp. tritici; test: Test B: wheat leaf rust, preventive spray on wheat seedlings, visual disease rating; conditions: for pest or weed control at 200 ppm: 192 h
# Outline: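 Wheat seedlings were sprayed to run-off with compound suspension, 200 ppm (≈500 g/ha) or 40 ppm where marked, containing surfactant in acetone/water. Inoculation with Puccinia recondita spores followed one day later, then 24 h in saturated humidity at 20° C and 7 days at 20° C. Disease control was rated visually, 0–100% versus controls.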
# Septoria nodorum = test: Test D: wheat glume blotch, preventive spray on wheat seedlings, visual disease rating; conditions: for pest or weed control at 200 ppm: Parastagonospora nodorum, 216 h
# Outline: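 Compounds in 3% acetone, then 50/50 acetone–water with 250 ppm Trem 014, sprayed to run-off at 200 ppm (500 g/ha; some at 40 ppm) one day before spore inoculation. Held 48 h saturated at 20 °C, then 7 days at 20 °C; visual rating as % disease control vs untreated (0–100).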
# Alternaria solani = test: Test E: tomato early blight, preventive spray on tomato seedlings, visual disease rating; conditions: for pest or weed control at 200 ppm: Alternaria solani, 168 h
# Outline: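 Seedlings sprayed to run-off with compound in acetone/water plus 250 ppm Trem 014 (200 ppm ≈ 500 g/ha), inoculated with spores next day. Held 48 h saturated at 27 °C, then 5 days at 20 °C; visual rating 0–100% disease control relative to controls.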
# Botrytis cinerea = test: Test F: tomato botrytis, preventive spray on tomato seedlings, visual disease rating; conditions: for pest or weed control at 200 ppm: Botrytis cinerea, 120 h
# Outline: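 Tomato seedlings sprayed to run-off with compound suspended in acetone/water (50/50) plus 250 ppm Trem 014, at 200 ppm (≈500 g/ha) or 40 ppm where marked. Inoculated next day with B. cinerea spores, 48 h saturated atmosphere at 20 °C, then 3 days at 24 °C. Visual rating, 0–100% disease control relative to controls.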
# Rhizoctonia oryzae = test: Test G: turf brown patch, preventive spray on creeping bent grass seedlings, visual disease rating; conditions: for pest or weed control at 200 ppm: Waitea circinata, in Agrostis stolonifera, 120 h
# Description: (§1) General protocol for preparing test suspensions for Tests A-H: The test compounds were first dissolved in acetone in an amount equal to 3% of the final volume and then suspended at the desired concentration (in ppm) in acetone and purified water (50/50 mix) containing 250 ppm of the surfactant Trem® 014 (polyhydric alcohol esters). The resulting test suspensions were then used in tests A-H. Spraying a 200 ppm test suspension to the point of run-off on the test plants was the equivalent of a rate of 500 g/ha.
# The test suspension was sprayed to the point of run-off on creeping bent grass seedlings. The following day the seedlings were inoculated with a spore suspension of Rhizoctonia oryzae (the causal agent of turf brown patch) and incubated in a saturated atmosphere at 27° C. for 48 h, and then moved to a growth chamber at 27° C. for 3 days, after which time disease ratings were visually made.
# (§2) Results for Tests A-H are given in Table A. In the table, a rating of 100 indicates 100% disease control and a rating of 0 indicates no disease control (relative to the controls). A dash (-) indicates no test results. All results are for compounds tested at 200 ppm except where the compound number is followed by “*” which indicates the compound was tested at 40 ppm.
# Septoria tritici = test: Test C: wheat leaf blotch, preventive spray on wheat seedlings, visual disease rating
# Outline: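 Wheat seedlings sprayed to run-off with compound in acetone/water plus 250 ppm surfactant at 200 ppm (≈500 g/ha), or 40 ppm where marked; inoculated with Septoria tritici next day. Held saturated at 20 °C for 48 h, then 19 days at 20 °C; disease control rated visually 0–100 versus controls.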
# Plasmopara viticola = test: Test H: grape downy mildew, spray after inoculation of grape seedlings, visual disease rating
# Description: as §1
# Grape seedlings were inoculated with a spore suspension of Plasmopara viticola (the causal agent of grape downy mildew) and incubated in a saturated atmosphere at 20° C. for 24 h. After a short drying period, the test suspension was sprayed to the point of run-off on the grape seedlings, and then moved to a growth chamber at 20° C. for 6 days, after which time the test units were placed back into a saturated atmosphere at 20° C. for 24 h. Upon removal, disease ratings were visually made.
# as §2
# [3] = 200 ppm, 100 = 100% disease control, 0 = no control
# [4] = 40 ppm (compound number followed by *)
Compound,"Test A rating (% disease control) [1, 3]","Test B rating (% disease control) [2, 3]",Test C rating (% disease control) (Septoria tritici; [3]),Test D rating (% disease control) (Septoria nodorum; [3]),Test E rating (% disease control) (Alternaria solani; [3]),Test F rating (% disease control) (Botrytis cinerea; [3]),Test G rating (% disease control) (Rhizoctonia oryzae; [3]),Test H rating (% disease control) (Plasmopara viticola; [3]),also measured
"COc1cc(OC)cc(-c2c(C3CCCC3)cnc(C)c2-c2ccc(F)cc2)c1 [Compound 50, 5-cyclopentyl-4-(3,5-dimethoxyphenyl)-3-(4-fluorophenyl)-2-methylpyridine]",,,,,,,,,"pest or weed control at 200 ppm [1, 3]: 92%; pest or weed control at 200 ppm [2, 3]: 99%; pest or weed control at 200 ppm (Septoria nodorum; [3]): 60%; pest or weed control at 200 ppm (Alternaria solani; [3]): 100%; pest or weed control at 200 ppm (Botrytis cinerea; [3]): 97%; pest or weed control at 200 ppm (Rhizoctonia oryzae; [3]): 98%"
"COc1cc(OC)cc(-c2c(-c3ccccc3)cnc(C)c2-c2ccc(F)cc2)c1 [Compound 34, 4-(3,5-dimethoxyphenyl)-3-(4-fluorophenyl)-5-phenyl-2-methylpyridine]",,,,,,,,,"pest or weed control at 200 ppm [1, 3]: 96%; pest or weed control at 200 ppm [2, 3]: 96%; pest or weed control at 200 ppm (Septoria tritici; Zymoseptoria tritici, 504 h, 200 ppm, 100 = 100% disease control, 0 = no control): 100%; pest or weed control at 200 ppm (Septoria nodorum; [3]): 77%; pest or weed control at 200 ppm (Alternaria solani; [3]): 96%; pest or weed control at 200 ppm (Botrytis cinerea; [3]): 99%; pest or weed control at 200 ppm (Rhizoctonia oryzae; [3]): 63%; pest or weed control at 200 ppm (Plasmopara viticola; Plasmopara viticola, 192 h, 200 ppm, 100 = 100% disease control, 0 = no control): 0%"
CNC(=O)c1cnc(C)c(-c2ccccc2)c1-c1cc(OC)cc(OC)c1 [Compound 9],94%,0%,86%,0%,99%,37%,0%,0%,
COc1cc(OC)cc(-c2c(C(C)=O)cnc(C)c2-c2ccccc2F)c1 [Compound 17],96%,98%,100%,0%,46%,99%,60%,0%,
COc1cc(OC)cc(-c2c(C(C)(C)O)c[n+]([O-])c(C)c2-c2ccccc2)c1 [Compound 52],25%,0%,,0%,0%,0%,0%,0%,
C=C(C)c1cnc(C)c(-c2c(F)cc(F)cc2F)c1-c1cc(OC)cc(OC)c1 [Compound 43],100%,100%,100%,78%,100%,100%,100%,,
CCc1ncc(C(C)C)c(-c2cc(OC)cc(OC)c2)c1-c1ccccc1 [Compound 30],98%,80%,100%,0%,0%,99%,,0%,
CCc1ncc(C(C)(C)O)c(-c2cc(OC)cc(OC)c2)c1-c1ccccc1 [Compound 28],96%,28%,100%,0%,93%,99%,,0%,
"COc1cc(OC)cc(-c2c(-c3ccc(F)cc3)c(C)nc(Cl)c2C2CCCC2)c1 [Compound 49, 2-chloro-3-cyclopentyl-4-(3,5-dimethoxyphenyl)-5-(4-fluorophenyl)-6-methylpyridine]",,,,,,,,,"pest or weed control at 200 ppm [1, 3]: 0%; pest or weed control at 200 ppm [2, 3]: 0%; pest or weed control at 200 ppm (Septoria nodorum; [3]): 0%; pest or weed control at 200 ppm (Alternaria solani; [3]): 16%; pest or weed control at 200 ppm (Botrytis cinerea; [3]): 0%; pest or weed control at 200 ppm (Rhizoctonia oryzae; [3]): 0%"
CCc1ncc(C(C)=O)c(-c2cc(OC)cc(OC)c2)c1-c1ccccc1 [Compound 27],98%,80%,100%,0%,92%,99%,,0%,
COc1cc(OC)cc(-c2c(C(C)C)cnc(C)c2-c2c(F)cccc2F)c1 [Compound 45],99%,100%,100%,0%,94%,100%,99%,,
COc1cc(OC)cc(-c2c(C(C)C)cnc(C)c2-c2c(F)cc(F)cc2F)c1 [Compound 48],,,,,,,,,"Test A rating (% disease control) [1, 4]: 98%; Test B rating (% disease control) [2, 4]: 100%; Test D rating (% disease control) (Septoria nodorum; [4]): 0%; Test E rating (% disease control) (Alternaria solani; [4]): 99%; Test F rating (% disease control) (Botrytis cinerea; [4]): 98%; Test G rating (% disease control) (Rhizoctonia oryzae; [4]): 100%"
CCC(C)(O)c1cnc(C)c(-c2ccc(F)cc2)c1-c1cc(OC)cc(OC)c1 (stereo not shown) [Compound 14],97%,98%,99%,0%,99%,99%,,0%,
COc1cc(OC)cc(-c2c(C3CCCCC3)cnc(C)c2-c2ccc(F)cc2)c1 [Compound 47],91%,97%,,0%,67%,96%,99%,,
COc1cc(OC)cc(-c2c(C3=CCCCC3)cnc(C)c2-c2ccc(F)cc2)c1 [Compound 46],81%,95%,,0%,31%,98%,0%,,
COc1cc(OC)cc(-c2c(C(C)(C)O)cnc(C)c2-c2ccccc2F)c1 [Compound 18],98%,99%,100%,0%,,97%,47%,0%,
CCOC(=O)c1cnc(C)c(-c2ccccc2)c1-c1cc(OC)cc(OC)c1Cl [Compound 25],,,,,,,,,"Test A rating (% disease control) [1, 4]: 0%; Test B rating (% disease control) [2, 4]: 0%; Test C rating (% disease control) (Septoria tritici; [4]): 0%; Test D rating (% disease control) (Septoria nodorum; [4]): 0%; Test E rating (% disease control) (Alternaria solani; [4]): 0%; Test F rating (% disease control) (Botrytis cinerea; [4]): 84%; Test H rating (% disease control) (Plasmopara viticola; [4]): 0%"
COc1cc(OC)cc(-c2c(C(C)(C)O)cnc(C)c2-c2c(F)cccc2F)c1 [Compound 42],100%,100%,100%,98%,,97%,86%,0%,
